Data reported in article PMC9945734 (BMC Medicine, 2023).
Where two headings read alike, the source gives them in different places.

Test system: PC-3-KQ cells
Test: 3D spheroid invasion assay and screening of FDA-approved drugs
Type: cell-based, human
Conditions: compared to vehicle control; for activity at 0.01 µM / activity at 0.1 µM / activity at 1 µM / activity at 10 µM: Homo sapiens, 72 h
Experimental: The invasion assay was performed as previously described. […] The plates were then centrifuged at 320 g for 4 min to cluster cells in the bottom of wells and incubated for 3 days. On the fourth day, 40 μL medium was removed from each well, 40 μL of the matrigel-medium mixture was added to each well, and cells were cultured for another 3 days. […] At the end of the incubation, images were taken using a phase contrast microscope (Eclipse Ti2, Nikon, Tokyo, Japan) with 10× object lenses, and the total area of cells and the core sphere area of cells (Fig. 1a) were measured using the Image J software. The invading area was calculated using the following formula: invasion area = total area of cells – core sphere area.
For drug screening, drugs were added to the matrigel-medium mixture when replacing the culture medium on day 4. For the initial round of screening, a final concentration of 10 μM was used for all drugs. Multiple drug concentrations were used for the second round of screening, including 0, 0.001, 0.01, 0.1, 1, and 10 μM. Duplicate wells were repeated for each concentration.

[1] = 0.01 μM (first column so headed), secondary screening of 87 hit compounds (Table S1)
[2] = 0.01 μM (first column so headed), third screening of 25 hit compounds (Table S2)
[3] = 0.01 μM (second column so headed), secondary screening of 87 hit compounds (Table S1)
[4] = 0.01 μM (second column so headed), third screening of 25 hit compounds (Table S2)
[5] = 0.1 μM, secondary screening of 87 hit compounds (Table S1)
[6] = 0.1 μM, third screening of 25 hit compounds (Table S2)
[7] = 1 μM, secondary screening of 87 hit compounds (Table S1)
[8] = 1 μM, third screening of 25 hit compounds (Table S2)
[9] = 10 μM, secondary screening of 87 hit compounds (Table S1)
[10] = 10 μM, third screening of 25 hit compounds (Table S2)
[11] = 0.01 μM (first column so headed), secondary screening of 87 hit compounds (Table S1), read-out: Invasion rates (%) of each drug’s multiple concentrations
[12] = 0.01 μM (second column so headed), secondary screening of 87 hit compounds (Table S1), read-out: Invasion rates (%) of each drug’s multiple concentrations
[13] = 0.1 μM, secondary screening of 87 hit compounds (Table S1), read-out: Invasion rates (%) of each drug’s multiple concentrations
[14] = 1 μM, secondary screening of 87 hit compounds (Table S1), read-out: Invasion rates (%) of each drug’s multiple concentrations
[15] = 10 μM, secondary screening of 87 hit compounds (Table S1), read-out: Invasion rates (%) of each drug’s multiple concentrations
[16] = 0.01 μM (first column so headed), third screening of 25 hit compounds (Table S2), read-out: Invasion rates (%) of each drug’s multiple concentrations
[17] = 0.01 μM (second column so headed), third screening of 25 hit compounds (Table S2), read-out: Invasion rates (%) of each drug’s multiple concentrations
[18] = 0.1 μM, third screening of 25 hit compounds (Table S2), read-out: Invasion rates (%) of each drug’s multiple concentrations
[19] = 1 μM, third screening of 25 hit compounds (Table S2), read-out: Invasion rates (%) of each drug’s multiple concentrations
[20] = 10 μM, third screening of 25 hit compounds (Table S2), read-out: Invasion rates (%) of each drug’s multiple concentrations

With Cc1ncc([N+](=O)[O-])n1CC(O)CN1CCOCC1 (single isomer, unassigned) [Morinidazole (R enantiomer)] the “Invasion rates (%) of each drug’s multiple concentrations (μM)” value (“Invasion rates (%)” for short) [1] was 90.71%, the “Invasion rates (%)” value [2] was 95.71% and the “Invasion rates (%)” value [3] was 98.08%. The “Invasion rates (%)” value [4] was 97.64%, the “Invasion rates (%)” value [5] was 89.69% and the “Invasion rates (%)” value [6] was 94.21%. The “Invasion rates (%)” value [7] was 10.13%, the “Invasion rates (%)” value [8] was 6.21% and the “Invasion rates (%)” value [9] was 2.86%. The “Invasion rates (%)” value [10] was 0.38%.
Nc1c2ccccc2nc2ccccc12 [9-Aminoacridine] gave an activity at 0.01 µM [11] of 96%, an activity at 0.01 µM [12] of 93.3% and an activity at 0.1 µM [13] of 94.7%. For the same molecule, the activity at 1 µM [14] was 86.4% and the activity at 10 µM [15] was 1.63%.
CNC[C@H](O)c1cccc(O)c1.Cl [(R)-(-)-Phenylephrine (hydrochloride)] was tested, and the “Invasion rates (%)” value [1] was 103.19%, the “Invasion rates (%)” value [3] was 103.23% and the “Invasion rates (%)” value [5] was 98.23%. For the same molecule, the “Invasion rates (%)” value [7] was 96.01% and the “Invasion rates (%)” value [9] was 4.27%.
Work on CC[C@@]1(O)C(=O)OCc2c1cc1n(c2=O)Cc2cc3cc(O)ccc3nc2-1 [(S)-10-Hydroxycamptothecin] yielded an activity at 0.01 µM (read-out: Invasion rates (%) of each drug’s multiple concentrations (μM), 0.01 μM (first column so headed), secondary screening of 87 hit compounds (Table S1)) of 93.7%, an activity at 0.01 µM (read-out: Invasion rates (%) of each drug’s multiple concentrations (μM), 0.01 μM (second column so headed), secondary screening of 87 hit compounds (Table S1)) of 98.2% and an activity at 0.1 µM (read-out: Invasion rates (%) of each drug’s multiple concentrations (μM), 0.1 μM, secondary screening of 87 hit compounds (Table S1)) of 85%. The activity at 1 µM (read-out: Invasion rates (%) of each drug’s multiple concentrations (μM), 1 μM, secondary screening of 87 hit compounds (Table S1)) was 89.9% and the activity at 10 µM (read-out: Invasion rates (%) of each drug’s multiple concentrations (μM), 10 μM, secondary screening of 87 hit compounds (Table S1)) was 85.1%.
In the case of CCN1CCN(Cc2ccc(Nc3ncc(F)c(-c4cc(F)c5nc(C)n(C(C)C)c5c4)n3)nc2)CC1.CS(=O)(=O)O [Abemaciclib (methanesulfonate)], the “Invasion rates (%)” value [1] is reported as 93.33%, the “Invasion rates (%)” value [3] is reported as 94.22% and the “Invasion rates (%)” value [5] is reported as 93.89%. The “Invasion rates (%)” value [7] was 89.88% and the “Invasion rates (%)” value [9] was 47.24%.
CC[C@@]1(O)C[C@H](O[C@H]2C[C@H](N(C)C)[C@H](O[C@H]3C[C@H](O)[C@H](O[C@H]4CCC(=O)[C@H](C)O4)[C@H](C)O3)[C@H](C)O2)c2c(cc3c(c2O)C(=O)c2c(O)cccc2C3=O)[C@H]1C(=O)OC.Cl [Aclacinomycin A hydrochloride] was tested, and the “Invasion rates (%)” value [1] was 84.24%, the “Invasion rates (%)” value [3] was 96.55% and the “Invasion rates (%)” value [5] was 76.95%. The “Invasion rates (%)” value [7] was 81.36% and the “Invasion rates (%)” value [9] was 1.28%.
With CCO[C@H]1O[C@@H]2O[C@@]3(C)CC[C@H]4[C@H](C)CC[C@@H]([C@H]1C)[C@@]24OO3 [Artemotil] the activity at 0.01 µM [11] was 96.2%, the activity at 0.01 µM [12] was 95.5% and the activity at 0.1 µM [13] was 90.7%. It also gave an activity at 1 µM [14] of 85.7% and an activity at 10 µM [15] of 0.51%.
In the case of CC(=O)OC[C@H]1O[C@@H]([S-])[C@H](OC(C)=O)[C@@H](OC(C)=O)[C@@H]1OC(C)=O.CCP(CC)CC.[Au+] [Auranofin], the “Invasion rates (%)” value [1] is reported as 98.81%, the “Invasion rates (%)” value [2] is reported as 93.68% and the “Invasion rates (%)” value [3] is reported as 100.66%. For the same molecule, the “Invasion rates (%)” value [4] was 97.35%, the “Invasion rates (%)” value [5] was 95.62% and the “Invasion rates (%)” value [6] was 88.21%. For the same molecule, the “Invasion rates (%)” value [7] was 2.03%, the “Invasion rates (%)” value [8] was 2.34% and the “Invasion rates (%)” value [9] was 0.38%. For the same molecule, the “Invasion rates (%)” value [10] was 0.76%.
With Cn1cnc([N+](=O)[O-])c1Sc1ncnc2nc[nH]c12 [Azathioprine] the activity at 0.01 µM [11] was 85.2%, the activity at 0.01 µM [12] was 91.6% and the activity at 0.1 µM [13] was 80%. For the same molecule, the activity at 1 µM [14] was 68.3% and the activity at 10 µM [15] was 33.5%.
Molecule O=C(Cn1ccnc1[N+](=O)[O-])NCc1ccccc1 [Benznidazol] has an activity at 0.01 µM [11] of 92.5%, an activity at 0.01 µM [12] of 94.3% and an activity at 0.1 µM [13] of 88.1%. For the same molecule, the activity at 1 µM [14] was 90.9% and the activity at 10 µM [15] was 4.48%.
CC(C)C[C@H](NC(=O)[C@H](Cc1ccccc1)NC(=O)c1cnccn1)B(O)O [Bortezomib] gave an activity at 0.01 µM [11] of 29.5%, an activity at 0.01 µM [16] of 84.3% and an activity at 0.01 µM [12] of 75.3%. It also gave an activity at 0.01 µM [17] of 92.8%, an activity at 0.1 µM [13] of 5.79% and an activity at 0.1 µM [18] of 66.1%. The activity at 1 µM [14] was 4.37%, the activity at 1 µM [19] was 35.3% and the activity at 10 µM [15] was 0.98%. The activity at 10 µM [20] was 9.72%.
With COc1cc(Nc2c(C#N)cnc3cc(OCCCN4CCN(C)CC4)c(OC)cc23)c(Cl)cc1Cl [Bosutinib] the activity at 0.01 µM [11] was 90.7%, the activity at 0.01 µM [12] was 97.2% and the activity at 0.1 µM [13] was 87.3%. For the same molecule, the activity at 1 µM [14] was 69.9% and the activity at 10 µM [15] was 10.1%.
Cc1cc(Nc2ncc(Cl)c(Nc3ccccc3S(=O)(=O)C(C)C)n2)c(OC(C)C)cc1C1CCNCC1.Cl.Cl [Ceritinib dihydrochloride] was tested, and the “Invasion rates (%)” value [1] was 88.46%, the “Invasion rates (%)” value [3] was 86.07% and the “Invasion rates (%)” value [5] was 92.06%. For the same molecule, the “Invasion rates (%)” value [7] was 86.82% and the “Invasion rates (%)” value [9] was 39.86%.
For CN(C)[C@@H]1C(=O)C(C(N)=O)=C(O)[C@@]2(O)C(=O)C3=C(O)c4c(O)ccc(Cl)c4[C@@](C)(O)[C@H]3C[C@@H]12.Cl [Chlortetracycline (hydrochloride)], the “Invasion rates (%)” value [1] was 99.62%, the “Invasion rates (%)” value [3] was 99.02% and the “Invasion rates (%)” value [5] was 97.93%. The “Invasion rates (%)” value [7] was 95.42% and the “Invasion rates (%)” value [9] was 45.01%.
COc1cc2ncnc(Nc3ccc(F)c(Cl)c3)c2cc1NC(=O)/C=C/CN1CCCCC1 [Dacomitinib] was tested, and the activity at 0.01 µM [11] was 78.1%, the activity at 0.01 µM [16] was 98.9% and the activity at 0.01 µM [12] was 77.8%. It also gave an activity at 0.01 µM [17] of 102%, an activity at 0.1 µM [13] of 73.1% and an activity at 0.1 µM [18] of 98.6%. The activity at 1 µM [14] was 44.7%, the activity at 1 µM [19] was 90.7% and the activity at 10 µM [15] was 5.75%. For the same molecule, the activity at 10 µM [20] was 53.9%.
CN1C[C@@H]2C[C@H]1CN2c1cc2c(cc1F)c(=O)c(C(=O)O)cn2C1CC1.CS(=O)(=O)O [Danofloxacin (mesylate)] was tested, and the “Invasion rates (%)” value [1] was 94.09%, the “Invasion rates (%)” value [2] was 93.23% and the “Invasion rates (%)” value [3] was 90.56%. For the same molecule, the “Invasion rates (%)” value [4] was 98.11%, the “Invasion rates (%)” value [5] was 86.22% and the “Invasion rates (%)” value [6] was 87.17%. For the same molecule, the “Invasion rates (%)” value [7] was 14.57%, the “Invasion rates (%)” value [8] was 77.40% and the “Invasion rates (%)” value [9] was 3.38%. The “Invasion rates (%)” value [10] was 2.06%.
In the case of O.O.O.O.O.O.O.O=C1N=C([O-])CN1/N=C/c1ccc(-c2ccc([N+](=O)[O-])cc2)o1.O=C1N=C([O-])CN1/N=C/c1ccc(-c2ccc([N+](=O)[O-])cc2)o1.[Na+].[Na+] [Dantrolene (sodium hemiheptahydrate)], the “Invasion rates (%)” value [1] is reported as 102.88%, the “Invasion rates (%)” value [3] is reported as 101.64% and the “Invasion rates (%)” value [5] is reported as 90.54%. The “Invasion rates (%)” value [7] was 82.27% and the “Invasion rates (%)” value [9] was 29.15%.
